Holding throughout (format): biochemical
The target of experiment [1] is PAK3 (Homo sapiens, UniProt O75914). In words: In vitro PAK inhibition assay (Z'-LYTE, SelectScreen), PAK3. To be noted: read-out: PAK3 IC50. The protocol: (§1) Compounds are screened in 1% DMSO (final) in the well. For 10 point titrations, 3-fold serial dilutions are conducted. All Peptide/Kinase Mixtures are diluted to a 2× working concentration in the appropriate Kinase Buffer
The 2×PAK3/Ser/Thr 20 mixture is prepared in 50 mM HEPES pH 7.5, 0.01% BRIJ-35, 10 mM MgCl2, 1 mM EGTA.
(§2) 1. Add the following solutions to a well in a 384-well plate: • 2.5 μL of 4× Test Compound OR (100 nL 100× Test Compound plus 2.4 μL kinase buffer) • 5 μL of 2× Peptide/Kinase (PAK) Mixture • 2.5 μL of 4×ATP Solution
(§3) 3. Incubate the PAK Kinase Reaction at room temperature for 60-minutes
(§4) 4. Add 5 μL of Development Reagent Solution to each well
(§5) 6. Incubate the Development Reaction for 60-minutes
(§6) 7. Determine the fluorescence using a fluorescence plate reader
(§7) SelectScreen® Kinase Profiling Service uses XLfit from IDBS.
(§8) The representative IC50 value with a known inhibitor for each kinase was determined at the ATP bin nearest to the ATP Km app.

Experiment [2] addresses PAK4 (Homo sapiens, UniProt O96013). Description: In vitro PAK inhibition assay (Z'-LYTE, SelectScreen), PAK4. The protocol: as §1
The 2×PAK-4/Ser/Thr 20 mixture is prepared in 50 mM HEPES pH 7.5, 0.01% BRIJ-35, 10 mM MgCl2, 1 mM EGTA. The final 10 μL Kinase Reaction consists of 0.1-0.75 ng PAK-4 and 2 μM Ser/Thr 20 in 50 mM HEPES pH 7.5, 0.01% BRIJ-35, 10 mM MgCl2, 1 mM EGTA. After the 1 hour Kinase Reaction incubation, 5 μL of a 1:256 dilution of Development Reagent A is added.
as §2, §3, §4, §5, §6
SelectScreen® Kinase Profiling Service uses XLfit from IDBS. The dose response curve is curve fit to model number 205 (sigmoidal dose-response model).
The table below provides specifications and data around each kinase. The representative IC50 value with a known inhibitor for each kinase was determined at the ATP bin nearest to the ATP Km app.

Experiment [3] concerns the target PAK2 (PAK65) (Homo sapiens, UniProt Q13177). In words: In vitro PAK inhibition assay (Z'-LYTE, SelectScreen), PAK2. The conditions noted are these: read-out: PAK2 IC50. On the procedure: as §1
The 2×PAK2 (PAK65)/Ser/Thr 20 mixture is prepared in 50 mM HEPES pH 7.5, 0.01% BRIJ-35, 10 mM MgCl2, 1 mM EGTA. The final 10 μL Kinase Reaction consists of 0.29-6 ng PAK2 (PAK65) and 2 μM Ser/Thr 20 in 50 mM HEPES pH 7.5, 0.01% BRIJ-35, 10 mM MgCl2, 1 mM EGTA.
as §2, §3, §4, §5, §6, §7, §8

Experiment [4] has as its target PAK1 (Homo sapiens, UniProt Q13153). In words: In vitro PAK inhibition assay (Z'-LYTE, SelectScreen), PAK1. To be noted: read-out: PAK1 IC50. On the procedure:
as §1
The 2×PAK1/Ser/Thr 19 mixture is prepared in 50 mM HEPES pH 7.5, 0.01% BRIJ-35, 10 mM MgCl2, 1 mM EGTA.
as §2, §3, §4, §5, §6, §7, §8

For orientation: IC50 means the concentration at which inhibition is half-maximal.

Chain of PAK4 (O96013 whole entry): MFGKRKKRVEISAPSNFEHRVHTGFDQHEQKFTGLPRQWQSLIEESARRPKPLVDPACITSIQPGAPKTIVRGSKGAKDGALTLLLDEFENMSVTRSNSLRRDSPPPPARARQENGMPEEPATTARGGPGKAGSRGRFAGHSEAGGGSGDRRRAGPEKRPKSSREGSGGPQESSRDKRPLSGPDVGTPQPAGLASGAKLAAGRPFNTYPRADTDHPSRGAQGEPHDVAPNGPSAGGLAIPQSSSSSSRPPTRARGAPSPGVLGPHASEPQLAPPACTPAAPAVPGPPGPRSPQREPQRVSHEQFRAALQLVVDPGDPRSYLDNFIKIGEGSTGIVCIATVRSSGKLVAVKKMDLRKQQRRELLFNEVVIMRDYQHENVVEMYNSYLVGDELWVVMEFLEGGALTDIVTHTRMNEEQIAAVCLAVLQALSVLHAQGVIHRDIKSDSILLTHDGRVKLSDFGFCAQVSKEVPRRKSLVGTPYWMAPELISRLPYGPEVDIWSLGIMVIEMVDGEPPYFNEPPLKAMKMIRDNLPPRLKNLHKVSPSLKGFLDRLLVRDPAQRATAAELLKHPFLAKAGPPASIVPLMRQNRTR
Chain of PAK3 (O75914 1-544 isoform O75914-2): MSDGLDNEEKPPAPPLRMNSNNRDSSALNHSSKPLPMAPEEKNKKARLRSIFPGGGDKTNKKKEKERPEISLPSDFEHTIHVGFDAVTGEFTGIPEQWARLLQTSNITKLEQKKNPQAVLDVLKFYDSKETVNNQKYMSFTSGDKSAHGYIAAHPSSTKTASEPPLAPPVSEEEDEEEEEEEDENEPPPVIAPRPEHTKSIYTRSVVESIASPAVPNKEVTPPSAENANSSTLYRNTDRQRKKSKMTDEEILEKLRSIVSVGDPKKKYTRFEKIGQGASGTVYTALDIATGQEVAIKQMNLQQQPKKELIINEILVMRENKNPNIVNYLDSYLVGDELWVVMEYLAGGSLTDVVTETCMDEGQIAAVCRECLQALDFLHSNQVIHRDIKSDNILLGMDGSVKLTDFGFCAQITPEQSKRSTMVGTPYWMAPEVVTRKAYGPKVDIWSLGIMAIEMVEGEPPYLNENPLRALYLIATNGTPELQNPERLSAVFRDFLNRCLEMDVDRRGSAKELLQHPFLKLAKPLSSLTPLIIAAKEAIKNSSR
Chain of PAK2 (PAK65) (Q13177 whole entry): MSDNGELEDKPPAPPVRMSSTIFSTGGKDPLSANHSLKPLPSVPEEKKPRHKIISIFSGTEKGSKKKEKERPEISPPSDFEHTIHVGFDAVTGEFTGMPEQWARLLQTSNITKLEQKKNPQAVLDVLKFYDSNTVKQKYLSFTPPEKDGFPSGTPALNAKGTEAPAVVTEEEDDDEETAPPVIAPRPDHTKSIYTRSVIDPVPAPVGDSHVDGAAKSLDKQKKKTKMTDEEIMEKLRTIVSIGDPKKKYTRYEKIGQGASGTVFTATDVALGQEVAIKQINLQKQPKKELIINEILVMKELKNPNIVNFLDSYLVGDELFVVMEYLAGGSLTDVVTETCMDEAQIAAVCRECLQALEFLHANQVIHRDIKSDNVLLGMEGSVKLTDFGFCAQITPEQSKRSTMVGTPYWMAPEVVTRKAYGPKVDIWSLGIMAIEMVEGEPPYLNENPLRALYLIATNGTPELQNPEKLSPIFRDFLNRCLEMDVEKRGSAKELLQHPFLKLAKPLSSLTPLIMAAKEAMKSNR
Chain of PAK1 (Q13153 whole entry): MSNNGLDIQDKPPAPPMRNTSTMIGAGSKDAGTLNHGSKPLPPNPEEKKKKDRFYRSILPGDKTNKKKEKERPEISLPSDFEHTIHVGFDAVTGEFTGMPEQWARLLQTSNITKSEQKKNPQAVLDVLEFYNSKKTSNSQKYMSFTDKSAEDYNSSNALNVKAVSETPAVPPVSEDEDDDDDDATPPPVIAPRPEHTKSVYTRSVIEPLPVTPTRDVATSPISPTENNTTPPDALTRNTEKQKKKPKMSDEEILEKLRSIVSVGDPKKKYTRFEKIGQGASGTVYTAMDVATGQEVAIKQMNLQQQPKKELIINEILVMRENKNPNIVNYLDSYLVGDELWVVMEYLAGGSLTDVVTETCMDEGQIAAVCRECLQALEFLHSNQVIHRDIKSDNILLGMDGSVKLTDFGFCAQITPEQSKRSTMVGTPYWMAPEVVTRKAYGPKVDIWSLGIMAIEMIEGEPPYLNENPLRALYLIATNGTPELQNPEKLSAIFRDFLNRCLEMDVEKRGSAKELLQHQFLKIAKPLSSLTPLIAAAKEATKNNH

`Cc1nccnc1-c1ccc(-c2cc3cnc(NC4CCOCC4)nc3[nH]c2=O)c(Cl)c1` [Example 10]: the IC50 in experiment [1] was 500 to 5000 nM; in experiment [2] it was > 5000 nM; in experiment [3], 50 to 500 nM; in experiment [4], 50 to 500 nM.

As to `CCn1c(=O)c(-c2ccc(-c3cccnc3OC)cc2Cl)cc2cnc(NC3CCOCC3)nc21` [Example 52], the concentration for half-maximal inhibition (IC50) is > 5000 nM in experiment [1], > 5000 nM in experiment [2], > 5000 nM in experiment [3] and 500 to 5000 nM in experiment [4].

For the compound `Cc1cnc(-c2ccc(-c3cc4cnc(NC5CCOCC5)nc4[nH]c3=O)c(Cl)c2)s1` [Example 14], the IC50 is 50 to 500 nM in experiment [1], > 5000 nM in experiment [2], > 5000 nM in experiment [3] and > 5000 nM in experiment [4].

Turning to `CCn1c(=O)c(-c2ccc(-c3cccnc3)cc2Cl)cc2cnc(N[C@@H]3CCOC3)nc21` [Example 51], the IC50 in experiment [1] was 500 to 5000 nM; in experiment [2], > 5000 nM; in experiment [3], 50 to 500 nM; in experiment [4], 50 to 500 nM.

As to `Cc1cncc(-c2ccc(-c3cc4cnc(N[C@H]5CCOC5)nc4n(CCN(C)C)c3=O)c(Cl)c2)n1` [Example 103], the IC50 was 500 to 5000 nM in experiment [1], > 5000 nM in experiment [2], 50 to 500 nM in experiment [3] and 50 to 500 nM in experiment [4].

Consider `CCn1c(=O)c(-c2ccc(-c3ccn(C)n3)cc2Cl)cc2cnc(N[C@@H]3CCOC3)nc21` [Example 63], for which the concentration for half-maximal inhibition (IC50) is 500 to 5000 nM in experiment [1], > 5000 nM in experiment [2], 50 to 500 nM in experiment [3] and 50 to 500 nM in experiment [4].

Take `CCn1c(=O)c(-c2ccc(-c3nccnc3C)cc2Cl)cc2cnc(NC3CCSCC3)nc21` [Example 18]: the IC50 in experiment [1] was 50 to 500 nM; in experiment [2] it was > 5000 nM; in experiment [3] it was 50 to 500 nM; in experiment [4] it was 50 to 500 nM.

For `CCn1c(=O)c(-c2ccc(-c3cncc(C)n3)cc2Cl)cc2cnc(NC3CCOCC3)nc21` [Example 7], the IC50 is 50 to 500 nM in experiment [1], > 5000 nM in experiment [2], < 50 nM in experiment [3] and < 50 nM in experiment [4].

As to `Cc1nccnc1-c1ccc(-c2cc3cnc(NC4CCOCC4)nc3n(C)c2=O)c(Cl)c1` [Example 9], the half-inhibitory concentration (IC50) in experiment [1] was 50 to 500 nM; in experiment [2] it was > 5000 nM; in experiment [3], 50 to 500 nM; in experiment [4], 50 to 500 nM.

Consider `Cc1nccnc1-c1ccc(-c2cc3cnc(NC4CCOCC4)nc3n(C3CCCC3)c2=O)c(Cl)c1` [Example 88, 6-(2-chloro-4-(3-methylpyrazin-2-yl)phenyl)-8-cyclopentyl-2-((tetrahydro-2H-pyran-4-yl)amino)pyrido[2,3-d]pyrimidin-7(8H)-one], for which the IC50 is 50 to 500 nM in experiment [1], > 5000 nM in experiment [2], 50 to 500 nM in experiment [3] and 50 to 500 nM in experiment [4].

As for `CCn1c(=O)c(-c2ccc(-c3ccncc3C)cc2Cl)cc2cnc(NC3CCOCC3)nc21` [Example 46], the IC50 in experiment [1] was 500 to 5000 nM; in experiment [2], > 5000 nM; in experiment [3], 500 to 5000 nM; in experiment [4], 500 to 5000 nM.

`CCn1c(=O)c(-c2ccc(-c3cncc(C)n3)cc2Cl)cc2cnc(NC3CCC(CCN)CC3)nc21` (centres unmarked) [Example 134]: the IC50 is 50 to 500 nM in experiment [1], > 5000 nM in experiment [2], < 50 nM in experiment [3] and < 50 nM in experiment [4].

Consider `CCn1c(=O)c(-c2ccc(-c3nccnc3C)cc2Cl)cc2cnc(N[C@H]3CC[C@H](N)CC3)nc21` [Example 90, 2-(((trans-1,4)-4-aminocyclohexyl)amino)-6-(2-chloro-4-(3-methylpyrazin-2-yl)phenyl)-8-ethylpyrido[2,3-d]pyrimidin-7(8H)-one], for which the IC50 was 50 to 500 nM in experiment [1], > 5000 nM in experiment [2], < 50 nM in experiment [3] and 50 to 500 nM in experiment [4].

With `CCn1c(=O)c(-c2ccc(-c3nccnc3C)cc2Cl)cc2cnc(N[C@H]3CCOC(C)(C)C3)nc21` (stereo in doubt) [Example 77], the IC50 is 50 to 500 nM in experiment [1], > 5000 nM in experiment [2], < 50 nM in experiment [3] and < 50 nM in experiment [4].

For the origin of these results see US20130116263A1, “PAK INHIBITORS FOR THE TREATMENT OF CELL PROLIFERATIVE DISORDERS” (AFRAXIS, INC., priority 2011, published 2013).
